These results are taken from ChEMBL document CHEMBL2062445, “Synthesis and nicotinic receptor activity of chemical space analogues of N-(3R)-1-azabicyclo[2.2.2]oct-3-yl-4-chlorobenzamide (PNU-282,987) and 1,4-diazabicyclo[3.2.2]nonane-4-carboxylic acid 4-bromophenyl ester (SSR180711)” (J Med Chem, 2012).

Experiment [1] deals with T1, Neuronal acetylcholine receptor subunit alpha-7 (Homo sapiens, UniProt P36544). In words: Antagonist activity at human alpha7 nAChR expressed in Xenopus oocyte assessed as inhibition of ACh-induced current at 10 uM after 30 secs by electrophysiological assay. In kind it is functional.
Experiment [2] has as its target T1, Neuronal acetylcholine receptor subunit alpha-7. In words: Antagonist activity at human alpha7 nAChR expressed in Xenopus oocyte assessed as inhibition of ACh-induced current after 30 secs by electrophysiological assay. In kind it is functional.
For experiment [3], the target named is T2, Neuronal acetylcholine receptor; alpha3/beta2 (Homo sapiens) (UniProt P17787+P32297). In words: Positive allosteric modulation at human recombinant alpha3beta 2 nAChR expressed in Xenopus oocyte assessed as stimulation of ACh-induced current at 10 uM after 30 secs by electrophysiological assay.
The target of experiment [4] is T2, Neuronal acetylcholine receptor; alpha3/beta2 (Homo sapiens). Kind of experiment: Negative allosteric modulation at human recombinant alpha3beta 2 nAChR expressed in Xenopus oocyte assessed as inhibition of ACh-induced current at 100 uM after 30 secs by electrophysiological assay.
The target is the same in experiment [5]. Kind of experiment: Positive allosteric modulation at human recombinant alpha3beta 2 nAChR expressed in Xenopus oocyte assessed as inhibition of ACh-induced current at 100 uM after 30 secs by electrophysiological assay.
For experiment [6], the target named is T1, Neuronal acetylcholine receptor subunit alpha-7. In words: Agonist activity at human alpha7 nAChR expressed in Xenopus oocyte assessed as stimulation of ACh-induced current at 10 uM after 30 secs by electrophysiological assay. In kind it is functional.
Experiment [7] shares this target. In words: Partial agonist activity at human alpha7 nAChR expressed in Xenopus oocyte assessed as stimulation of ACh-induced current after 30 secs by electrophysiological assay. In kind it is functional.

Broadly, the inhibition is the relative decrease from the control value, in per cent. For orientation: IC50 means the concentration needed to halve the response being measured.

Calls of active or inactive are those of the source. The rule behind the calls is not given here.

T1 sequence (P36544 whole entry): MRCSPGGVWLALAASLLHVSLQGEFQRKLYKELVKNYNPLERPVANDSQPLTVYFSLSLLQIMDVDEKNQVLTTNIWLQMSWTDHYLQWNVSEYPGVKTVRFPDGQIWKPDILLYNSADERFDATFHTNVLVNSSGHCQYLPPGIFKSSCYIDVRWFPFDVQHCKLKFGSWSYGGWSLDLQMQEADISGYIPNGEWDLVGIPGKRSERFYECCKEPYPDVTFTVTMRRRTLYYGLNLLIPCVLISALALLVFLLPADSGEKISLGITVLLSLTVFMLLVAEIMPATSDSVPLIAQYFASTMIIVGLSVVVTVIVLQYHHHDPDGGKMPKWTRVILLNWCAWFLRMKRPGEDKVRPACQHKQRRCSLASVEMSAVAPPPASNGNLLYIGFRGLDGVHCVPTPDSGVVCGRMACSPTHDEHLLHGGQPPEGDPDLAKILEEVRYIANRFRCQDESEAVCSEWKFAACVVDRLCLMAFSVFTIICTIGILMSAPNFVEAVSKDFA

Consider `CC1CCCC1N1CC[C@H](NC(=O)c2ccc3ncsc3c2)C1` (stereo not given in full), for which, in experiment [1], the inhibition worked out at 20%. The IC50 in experiment [2] was 5 µM.

Regarding `CC(C)N1CCCCN(C(=O)c2ccc3c(c2)OCCO3)CC1`, the inhibition in experiment [1] was 25%. Further, the IC50 in experiment [2] was found to be 6.9 µM.

For `CN1CCC2CC1CN(C(=O)Oc1ccc(Br)cc1)C2` (racemic), the outcome in experiment [3] and in experiment [4] was Active.

With `O=C(NCC1CC2CCN1CC2)c1ccc(F)cc1` (racemic), the inhibition in experiment [1] worked out at 84%. Also, the outcome in experiment [3] and in experiment [5] was Active.

Turning to `CCC#CCN1CCC[C@H]1CNC(=O)c1ccc2ncsc2c1`, the inhibition in experiment [1] worked out at 88%. For the same compound, in experiment [6], the result was inactive. In experiment [2], the IC50 was determined as 45 µM.

Consider `O=C(NCC12CCCN1CCC2)c1ccc(Cl)cc1`, for which, in experiment [1], the inhibition came to 32%. Further, the result in experiment [3] and in experiment [4] was Active.

Turning to `O=C(Oc1ccc(Br)cc1)N1CCN2CCC1CC2`, the result in experiment [7] was Active.

For the compound `O=C(NCC12CCCN1CCC2)c1ccccc1`, the inhibition in experiment [1] came out at 26%. Besides, the result in experiment [3] and in experiment [4] was Active.

Consider `O=C(N[C@@H]1CCCC[C@H]1N1CCCCC1)Oc1ccc(Br)cc1` (racemic), for which, in experiment [1], the inhibition was 34%. Moreover, the IC50 in experiment [2] is 10 µM.

As for `CCC#CCN1CCC[C@@H]1CNC(=O)c1ccc2ncsc2c1`, the inhibition in experiment [1] amounted to 13%. Also, the IC50 in experiment [2] turned out to be 40 µM.

Regarding `O=C(NCC1=CC2CCN1CC2)c1ccc(F)cc1`, the inhibition in experiment [1] amounted to 36%. For the same compound, in experiment [6], the outcome was inactive.

`CCN1CCC[C@@H]1CNC(=O)Oc1ccc(Br)cc1`: the inhibition in experiment [1] worked out at 53%. Further, the outcome in experiment [6] was inactive.

`CN1CC2CCC1C(CNC(=O)c1ccc(F)cc1)C2` (racemic; form 2): the inhibition in experiment [1] amounted to 55%. Further, the result in experiment [6] was inactive.

For `O=C(Oc1ccc(Br)cc1)N1CCCN2CCC[C@@H]2C1`, in experiment [1], the inhibition was found to be 36%. Further, in experiment [6], the result was inactive.

On to `O=C(N[C@H]1CCN(Cc2ccccc2)C1)c1ccc2ncsc2c1`, for which the inhibition in experiment [1] was found to be 94%. In experiment [6], the result was inactive.

For the compound `CC(C)N1C[C@H]2C[C@@H]1CN2C(=O)c1ccc(Cl)cc1`, the inhibition in experiment [1] is 69%. Also, the outcome in experiment [6] was inactive.
